Measured values published in patent US20230129359A1, “MUSCARINIC RECEPTOR 4 ANTAGONISTS AND METHODS OF USE” (Neurocrine Biosciences, Inc., priority 2020, published 2023).
pKi: −log10 of the molar value.

Target: T1, human M4 receptor (Homo sapiens, UniProt P08173)
T1 construct: expressed in transfected cells; host or cells: CHO cells
T1 sequence (P08173 1-479): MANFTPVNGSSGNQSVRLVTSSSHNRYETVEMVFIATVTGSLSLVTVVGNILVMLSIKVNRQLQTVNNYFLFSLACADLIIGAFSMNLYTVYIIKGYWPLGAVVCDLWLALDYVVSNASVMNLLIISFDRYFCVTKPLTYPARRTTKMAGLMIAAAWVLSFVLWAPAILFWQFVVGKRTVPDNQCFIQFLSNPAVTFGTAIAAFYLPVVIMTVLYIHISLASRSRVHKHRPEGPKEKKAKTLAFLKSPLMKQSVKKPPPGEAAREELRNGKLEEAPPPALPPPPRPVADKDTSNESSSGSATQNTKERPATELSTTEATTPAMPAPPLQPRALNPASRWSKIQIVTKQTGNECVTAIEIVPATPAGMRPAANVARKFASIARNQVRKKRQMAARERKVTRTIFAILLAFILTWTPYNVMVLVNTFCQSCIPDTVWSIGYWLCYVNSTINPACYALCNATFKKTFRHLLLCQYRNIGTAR
Assay: Radioligand ([3H]N-methylscopolamine) binding assay, membranes from CHO cells expressing human M4 receptor
Details: Ki against human M4 receptor; membranes from CHO cells; tritiated N-methylscopolamine 1.5 nM; read-out: K
Method in brief: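 Competition binding used CHO-cell membranes expressing human M4 with 1.5 nM [3H]N-methylscopolamine and twelve compound concentrations ([…]). Incubation was 90 minutes at 37 °C in 50 mM HEPES, 100 mM NaCl, 5 mM MgCl2, 1 mM EDTA, pH 7.4. Bound ligand was collected by filtration onto PEI-treated glass fibre for Ki.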

SMILES | pKi
C[C@@H]1CN(c2ncc(C(F)(F)F)c(N)n2)C[C@H](C)N1C(=O)OC1CC2(C1)CN(Cc1ccccc1)C2 [Compound 463, 2-benzyl-2-azaspiro[3.3]heptan-6-yl (2R,6S)-4-[4-amino-5-(trifluoromethyl)pyrimidin-2-yl]-2,6-dimethylpiperazine-1-carboxylate] | > 8.00
C[C@@H]1CN(c2ncc(C(F)F)cn2)C[C@H](C)N1C(=O)OC1CC2(C1)CN(Cc1ccccc1)C2 [Compound 464, 2-benzyl-2-azaspiro[3.3]heptan-6-yl (2R,6S)-4-[5-(difluoromethyl)pyrimidin-2-yl]-2,6-dimethylpiperazine-1-carboxylate] | 7.00 to 8.00
C[C@@H]1CN(c2ncc(OC(F)F)cn2)C[C@H](C)N1C(=O)OC1CC2(C1)CN(Cc1ccc(F)cc1)C2 [Compound 465, 2-[(4-fluorophenyl)methyl]-2-azaspiro[3.3]heptan-6-yl (2R,6S)-4-[5-(difluoromethoxy)pyrimidin-2-yl]-2,6-dimethylpiperazine-1-carboxylate] | > 8.00
C[C@@H]1CN(c2ncc(C(F)(F)F)c(N)n2)C[C@H](C)N1C(=O)OC1CC2(C1)CN(Cc1ccc(F)cc1)C2 [Compound 466, 2-[(4-fluorophenyl)methyl]-2-azaspiro[3.3]heptan-6-yl (2R,6S)-4-[4-amino-5 (trifluoromethyl)pyrimidin-2-yl]-2,6-dimethylpiperazine-1-carboxylate] | > 8.00
C[C@@H]1CN(c2ncc(C(F)F)cn2)C[C@H](C)N1C(=O)OC1CC2(C1)CN(Cc1ccc(F)cc1)C2 [Compound 467, 2-[(4-fluorophenyl)methyl]-2-azaspiro[3.3]heptan-6-yl (2R,6S)-4-[5-(difluoromethyl)pyrimidin-2-yl]-2,6-dimethylpiperazine-1-carboxylate] | 7.00 to 8.00
C[C@@H]1CN(c2ncc(F)cn2)C[C@H](C)N1C(=O)OC1CC2(C1)CN(Cc1ccc(F)cc1)C2 [Compound 468, 2-[(4-fluorophenyl)methyl]-2-azaspiro[3.3]heptan-6-yl (2R,6S)-4-(5-fluoropyrimidin-2-yl)-2,6-dimethylpiperazine-1-carboxylate] | 7.00 to 8.00
CNC(=O)c1cnc(N2C[C@@H](C)N(C(=O)OC3CC4(C3)CN(Cc3ccccc3)C4)[C@@H](C)C2)nc1 [Compound 471, 2-benzyl-2-azaspiro[3.3]heptan-6-yl (2R,6S)-2,6-dimethyl-4-[5-(methylcarbamoyl)pyrimidin-2-yl]piperazine-1-carboxylate] | 6.00 to 7.00
C[C@@H]1CN(c2ncc(C#N)cn2)C[C@H](C)N1C(=O)OC1CC2(C1)CN(Cc1ccc(F)cc1)C2 [Compound 472, 2-[(4-fluorophenyl)methyl]-2-azaspiro[3.3]heptan-6-yl (2R,6S)-4-(5-cyanopyrimidin-2-yl)-2,6-dimethylpiperazine-1-carboxylate] | 7.00 to 8.00
C[C@@H]1CN(c2ncc(C#N)cn2)[C@@H](C)CN1C(=O)OC1CC2(C1)CN(Cc1ccc(F)cc1)C2 [Compound 473, 2-[(4-fluorophenyl)methyl]-2-azaspiro[3.3]heptan-6-yl (2R,5S)-4-(5-cyanopyrimidin-2-yl)-2,5-dimethylpiperazine-1-carboxylate] | 7.00 to 8.00
C[C@@H]1CN(c2ncc(C#N)cn2)C[C@H](C)N1C(=O)OC1CC2(C1)CN(Cc1ccc(Cl)cc1)C2 [Compound 475, 2-[(4-chlorophenyl)methyl]-2-azaspiro[3.3]heptan-6-yl (2R,6S)-4-(5-cyanopyrimidin-2-yl)-2,6-dimethylpiperazine-1-carboxylate] | 7.00 to 8.00
C[C@@H]1CN(c2ncc(C(F)(F)F)cn2)CCN1C(=O)OC1CC2(C1)CN(Cc1ccc(Cl)cc1)C2 [Compound 478, 2-[(4-chlorophenyl)methyl]-2-azaspiro[3.3]heptan-6-yl (2R)-2-methyl-4-[5-(trifluoromethyl)pyrimidin-2-yl]piperazine-1-carboxylate] | 6.00 to 7.00
C[C@@H]1CN(c2cnc(C(F)(F)F)cn2)C[C@H](C)N1C(=O)OC1CC2(C1)CN(Cc1ccc(Cl)cc1)C2 [Compound 479, 2-[(4-chlorophenyl)methyl]-2-azaspiro[3.3]heptan-6-yl (2R,6S)-2,6-dimethyl-4-[5-(trifluoromethyl)pyrazin-2-yl]piperazine-1-carboxylate] | 7.00 to 8.00
C[C@@H]1CN(c2cnc(C(F)(F)F)cn2)[C@@H](C)CN1C(=O)OC1CC2(C1)CN(Cc1ccc(Cl)cc1)C2 [Compound 480, 2-[(4-chlorophenyl)methyl]-2-azaspiro[3.3]heptan-6-yl (2R,5S)-2,5-dimethyl-4-[5-(trifluoromethyl)pyrazin-2-yl]piperazine-1-carboxylate] | 7.00 to 8.00
C[C@@H]1CN(c2ncc(C(F)(F)F)cn2)[C@@H](C)CN1C(=O)OC1CC2(C1)CN(Cc1ccc(Cl)cc1)C2 [Compound 482, 2-[(4-chlorophenyl)methyl]-2-azaspiro[3.3]heptan-6-yl (2R,5S)-2,5-dimethyl-4-[5-(trifluoromethyl)pyrimidin-2-yl]piperazine-1-carboxylate] | > 8.00
C[C@@H]1CN(c2ncc(C#N)cn2)CCN1C(=O)OC1CC2(C1)CN(Cc1ccc(Cl)cc1)C2 [Compound 483, 2-[(4-chlorophenyl)methyl]-2-azaspiro[3.3]heptan-6-yl (2R)-4-(5-cyanopyrimidin-2-yl)-2-methylpiperazine-1-carboxylate] | 6.00 to 7.00
C[C@@H]1CN(c2ncc3cc(F)ccc3n2)[C@@H](C)CN1C(=O)OC1CC2(C1)CN(Cc1ccccc1)C2 [Compound 484, 2-benzyl-2-azaspiro[3.3]heptan-6-yl (2R,5S)-4-(6-fluoroquinazolin-2-yl)-2,5-dimethylpiperazine-1-carboxylate] | > 8.00
C[C@@H]1CN(c2ncc(C(=O)N(C)C)cn2)C[C@H](C)N1C(=O)OC1CC2(C1)CN(Cc1ccccc1)C2 [Compound 489, 2-benzyl-2-azaspiro[3.3]heptan-6-yl (2R,6S)-4-[5-(dimethylcarbamoyl)pyimidin-2-yl]-2,6-dimethylpiperazine-1-carboxylate] | 6.00 to 7.00
O=C(OC1CC2(C1)CN(Cc1ccccc1)C2)N1CC2COCC(C1)N2c1ncc(C(F)(F)F)cn1 [Compound 495, 2-benzyl-2-azaspiro[3.3]heptan-6-yl 9-[5-(trifluoromethyl)pyrimidin-2-yl]-3-oxa-7,9-diazabicyclo[3.3.1]hnonane-7-carboxylate] | 7.00 to 8.00
O=C(OC1CC2(C1)CN(Cc1ccccc1)C2)N1CC2COCC(C1)N2c1cnc(C(F)(F)F)cn1 [Compound 496, 2-benzyl-2-azaspiro[3.3]heptan-6-yl 9-[5-(trifluoromethyl)pyrazin-2-yl]-3-oxa-7,9-diazabicyclo[3.3.1]nonane-7-carboxylate] | 6.00 to 7.00
CCc1cnc(N2C[C@@H](C)N(C(=O)OC3CC4(C3)CN(Cc3ccccc3)C4)[C@@H](C)C2)nc1 [Compound 497, 2-benzyl-2-azaspiro[3.3]heptan-6-yl (2R,6S)-4-(5-ethylpyrimidin-2-yl)-2,6-dimethylpiperazine-1-carboxylate] | > 8.00
C[C@@H]1CN(c2ncc(OC(F)(F)F)cn2)C[C@H](C)N1C(=O)OC1CC2(C1)CN(Cc1ccccc1)C2 [Compound 498, 2-benzyl-2-azaspiro[3.3]heptan-6-yl (2R,6S)-2,6-dimethyl-4-[5-(trifluoromethoxy)pyrimidin-2-yl]piperazine-1-carboxylate] | > 8.00
C[C@@H]1CN(c2ncc(OCC3CC3)cn2)C[C@H](C)N1C(=O)OC1CC2(C1)CN(Cc1ccccc1)C2 [Compound 499, 2-benzyl-2-azaspiro[3.3]heptan-6-yl (2R,6S)-4-[5-(cyclopropylmethoxy)pyrimidin-2-yl]-2,6-dimethylpiperazine-1-carboxylate] | > 8.00
C[C@@H]1CN(c2ncc(C(F)(F)F)cn2)[C@@H](C)CN1C(=O)OC1CC2(C1)CN(Cc1ccc(S(C)(=O)=O)cc1)C2 [Compound 501, 2-[(4-methanesulfonylphenyl)methyl]-2-azaspiro[3.3]heptan-6-yl (2R,56S)-2,5-dimethyl-4-[5-(trifluoromethyl)pyrimidin-2-yl]piperazine-1-carboxylate] | 6.00 to 7.00
C[C@@H]1CN(c2cnc(C(F)(F)F)cn2)[C@@H](C)CN1C(=O)OC1CC2(C1)CN(Cc1ccc(S(C)(=O)=O)cc1)C2 [Compound 503, 2-[(4-methanesulfonylphenyl)methyl]-2-azaspiro[3.3]heptan-6-yl (2R,5S)-2,5-dimethyl-4-[5-(trifluoromethyl)pyrazin-2-yl]piperazine-1-carboxylate] | 6.00 to 7.00
CCCc1cnc(N2C[C@@H](C)N(C(=O)OC3CC4(C3)CN(Cc3ccccc3)C4)[C@@H](C)C2)nc1 [Compound 504, 2-benzyl-2-azaspiro[3.3]heptan-6-yl (2R,6S)-2,6-dimethyl-4-(5-propylpyrimidin-2-yl)piperazine-1-carboxylate] | > 8.00
CC(C)c1cnc(N2C[C@@H](C)N(C(=O)OC3CC4(C3)CN(Cc3ccccc3)C4)[C@@H](C)C2)nc1 [Compound 505, 2-benzyl-2-azaspiro[3.3]heptan-6-yl (2R,6S)-2,6-dimethyl-4-[5-(rpopan-2-yl)pyrimidin-2-yl]piperazine-1-carboxylate] | > 8.00
